Results taken from ChEMBL document CHEMBL4715697, “Synthesis and biological activity of benzamide DNA minor groove binders” (2016).

Key:
Type in all cases: functional
HOP-62 [1] = assay: Growth inhibition of human HOP-62 cells assessed as cell growth at 0.01 uM incubated for 48 hrs by sulforhodamine B assay relative to control; details: read-out: Activity
NCI-H23 [2] = assay: Growth inhibition of human NCI-H23 cells assessed as cell growth at 0.01 uM incubated for 48 hrs by sulforhodamine B assay relative to control; details: read-out: Activity
NCI-H460 = assay: Growth inhibition of human NCI-H460 cells assessed as cell growth at 0.01 uM incubated for 48 hrs by sulforhodamine B assay relative to control; details: read-out: Activity
KM12 = assay: Growth inhibition of human KM12 cells assessed as cell growth at 0.01 uM incubated for 48 hrs by sulforhodamine B assay relative to control; details: read-out: Activity
Malme-3M [3] = assay: Growth inhibition of human Malme-3M cells assessed as cell growth at 0.01 uM incubated for 48 hrs by sulforhodamine B assay relative to control; details: read-out: Activity
UACC-257 [4] = assay: Growth inhibition of human UACC-257 cells assessed as cell growth at 0.01 uM incubated for 48 hrs by sulforhodamine B assay relative to control; details: read-out: Activity
OVCAR-3 = assay: Growth inhibition of human OVCAR-3 cells assessed as cell growth at 0.01 uM incubated for 48 hrs by sulforhodamine B assay relative to control; details: read-out: Activity
786-0 = assay: Growth inhibition of human 786-0 cells assessed as cell growth at 0.01 uM incubated for 48 hrs by sulforhodamine B assay relative to control; details: read-out: Activity
MDA-MB-231 [5] = assay: Growth inhibition of human MDA-MB-231 cells assessed as cell growth at 0.01 uM incubated for 48 hrs by sulforhodamine B assay relative to control; details: read-out: Activity
SR [6] = assay: Growth inhibition of human SR cells assessed as cell growth at 0.1 uM incubated for 48 hrs by sulforhodamine B assay relative to control; details: read-out: Activity
HOP-62 [7] = assay: Growth inhibition of human HOP-62 cells assessed as cell growth at 0.1 uM incubated for 48 hrs by sulforhodamine B assay relative to control; details: read-out: Activity
U-251 [8] = assay: Growth inhibition of human U-251 cells assessed as cell growth at 0.1 uM incubated for 48 hrs by sulforhodamine B assay relative to control; details: read-out: Activity
MCF7 [9] = assay: Growth inhibition of human MCF7 cells assessed as cell growth at 0.1 uM incubated for 48 hrs by sulforhodamine B assay relative to control; details: read-out: Activity
MDA-MB-231 [10] = assay: Growth inhibition of human MDA-MB-231 cells assessed as cell growth at 0.1 uM incubated for 48 hrs by sulforhodamine B assay relative to control; details: read-out: Activity
MDA-MB-468 = assay: Growth inhibition of human MDA-MB-468 cells assessed as cell growth at 0.1 uM incubated for 48 hrs by sulforhodamine B assay relative to control; details: read-out: Activity
EKVX = assay: Growth inhibition of human EKVX cells assessed as cell growth at 1 uM incubated for 48 hrs by sulforhodamine B assay relative to control; details: read-out: Activity
SF-268 = assay: Growth inhibition of human SF-268 cells assessed as cell growth at 1 uM incubated for 48 hrs by sulforhodamine B assay relative to control; details: read-out: Activity
SNB-75 = assay: Growth inhibition of human SNB-75 cells assessed as cell growth at 1 uM incubated for 48 hrs by sulforhodamine B assay relative to control; details: read-out: Activity
U-251 [11] = assay: Growth inhibition of human U-251 cells assessed as cell growth at 1 uM incubated for 48 hrs by sulforhodamine B assay relative to control; details: read-out: Activity
SK-MEL-5 = assay: Growth inhibition of human SK-MEL-5 cells assessed as cell growth at 1 uM incubated for 48 hrs by sulforhodamine B assay relative to control; details: read-out: Activity
UACC-62 = assay: Growth inhibition of human UACC-62 cells assessed as cell growth at 1 uM incubated for 48 hrs by sulforhodamine B assay relative to control; details: read-out: Activity
OVCAR-5 [12] = assay: Growth inhibition of human OVCAR-5 cells assessed as cell growth at 1 uM incubated for 48 hrs by sulforhodamine B assay relative to control; details: read-out: Activity
OVCAR-8 = assay: Growth inhibition of human OVCAR-8 cells assessed as cell growth at 1 uM incubated for 48 hrs by sulforhodamine B assay relative to control; details: read-out: Activity
PC-3 [13] = assay: Growth inhibition of human PC-3 cells assessed as cell growth at 1 uM incubated for 48 hrs by sulforhodamine B assay relative to control; details: read-out: Activity
MCF7 [14] = assay: Growth inhibition of human MCF7 cells assessed as cell growth at 1 uM incubated for 48 hrs by sulforhodamine B assay relative to control; details: read-out: Activity
HL-60(TB) = assay: Growth inhibition of human HL-60(TB) cells assessed as cell growth at 100 uM incubated for 48 hrs by sulforhodamine B assay relative to control; details: read-out: Activity
SR [15] = assay: Growth inhibition of human SR cells assessed as cell growth at 100 uM incubated for 48 hrs by sulforhodamine B assay relative to control; details: read-out: Activity
NCI-H23 [16] = assay: Growth inhibition of human NCI-H23 cells assessed as cell growth at 100 uM incubated for 48 hrs by sulforhodamine B assay relative to control; details: read-out: Activity
Malme-3M [17] = assay: Growth inhibition of human Malme-3M cells assessed as cell growth at 100 uM incubated for 48 hrs by sulforhodamine B assay relative to control; details: read-out: Activity
SK-MEL-2 = assay: Growth inhibition of human SK-MEL-2 cells assessed as cell growth at 100 uM incubated for 48 hrs by sulforhodamine B assay relative to control; details: read-out: Activity
SK-MEL-28 = assay: Growth inhibition of human SK-MEL-28 cells assessed as cell growth at 100 uM incubated for 48 hrs by sulforhodamine B assay relative to control; details: read-out: Activity
PC-3 [18] = assay: Growth inhibition of human PC-3 cells assessed as cell growth at 100 uM incubated for 48 hrs by sulforhodamine B assay relative to control; details: read-out: Activity
MDA-MB-231 [19] = assay: Growth inhibition of human MDA-MB-231 cells assessed as cell growth at 100 uM incubated for 48 hrs by sulforhodamine B assay relative to control; details: read-out: Activity
HOP-62 [20] = assay: Growth inhibition of human HOP-62 cells incubated for 48 hrs by sulforhodamine B assay
SF-539 = assay: Growth inhibition of human SF-539 cells incubated for 48 hrs by sulforhodamine B assay
UACC-257 [21] = assay: Growth inhibition of human UACC-257 cells incubated for 48 hrs by sulforhodamine B assay
OVCAR-5 [22] = assay: Growth inhibition of human OVCAR-5 cells incubated for 48 hrs by sulforhodamine B assay
[23] = read-out: LC50 (the source's name)
[24] = read-out: pLC50 (the source's name) (converted)

## CC(=O)Nc1cc(CCl)cc(NC(=O)c2ccc(C(=O)Nc3cccc(NC(=O)CCCN(C)C)c3)cc2)c1
HOP-62 [1]
  growth at 0.01 µM: 101%
NCI-H23 [2]
  growth at 0.01 µM: 96%
NCI-H460
  growth at 0.01 µM: 105%
KM12
  growth at 0.01 µM: 105%
Malme-3M [3]
  growth at 0.01 µM: 99%
UACC-257 [4]
  growth at 0.01 µM: 97%
OVCAR-3
  growth at 0.01 µM: 112%
786-0
  growth at 0.01 µM: 106%
MDA-MB-231 [5]
  growth at 0.01 µM: 103%
SR [6]
  growth at 0.1 µM: 107%
HOP-62 [7]
  growth at 0.1 µM: 104%
U-251 [8]
  growth at 0.1 µM: 94%
MCF7 [9]
  growth at 0.1 µM: 87%
MDA-MB-231 [10]
  growth at 0.1 µM: 106%
MDA-MB-468
  growth at 0.1 µM: 84%
EKVX
  growth at 1 µM: 81%
SF-268
  growth at 1 µM: 101%
SNB-75
  growth at 1 µM: 78%
U-251 [11]
  growth at 1 µM: 93%
SK-MEL-5
  growth at 1 µM: 93%
UACC-62
  growth at 1 µM: 102%
OVCAR-5 [12]
  growth at 1 µM: 83%
OVCAR-8
  growth at 1 µM: 101%
PC-3 [13]
  growth at 1 µM: 103%
MCF7 [14]
  growth at 1 µM: 81%
HL-60(TB)
  growth at 100 µM: 90%
SR [15]
  growth at 100 µM: 99%
NCI-H23 [16]
  growth at 100 µM: 79%
Malme-3M [17]
  growth at 100 µM: 80%
SK-MEL-2
  growth at 100 µM: 116%
SK-MEL-28
  growth at 100 µM: 92%
PC-3 [18]
  growth at 100 µM: 88%
MDA-MB-231 [19]
  growth at 100 µM: 74%
HOP-62 [20]; read-out: GI50
  GI50: > 100 µM
HOP-62 [20]; [23]
  CC50: > 100 µM
HOP-62 [20]; read-out: TGI
  TGI: > 100 µM
HOP-62 [20]; read-out: pGI50 (converted)
  GI50: > 100 µM
HOP-62 [20]; [24]
  CC50: > 100 µM
HOP-62 [20]; read-out: pTGI
  TGI: > 100 µM
SF-539; read-out: GI50
  GI50: > 100 µM
SF-539; [23]
  CC50: > 100 µM
SF-539; read-out: TGI
  TGI: > 100 µM
SF-539; read-out: pGI50 (converted)
  GI50: > 100 µM
SF-539; [24]
  CC50: > 100 µM
SF-539; read-out: pTGI
  TGI: > 100 µM
UACC-257 [21]; read-out: GI50
  GI50: > 100 µM
UACC-257 [21]; read-out: LC50
  LC50: > 100 µM
UACC-257 [21]; read-out: TGI
  TGI: > 100 µM
UACC-257 [21]; read-out: pGI50 (converted)
  GI50: > 100 µM
UACC-257 [21]; read-out: pLC50 (converted)
  LC50: > 100 µM
UACC-257 [21]; read-out: pTGI
  TGI: > 100 µM
OVCAR-5 [22]; read-out: GI50
  GI50: > 100 µM
OVCAR-5 [22]; read-out: LC50
  LC50: > 100 µM
OVCAR-5 [22]; read-out: TGI
  TGI: > 100 µM
OVCAR-5 [22]; read-out: pGI50 (converted)
  GI50: > 100 µM
OVCAR-5 [22]; read-out: pLC50 (converted)
  LC50: > 100 µM
OVCAR-5 [22]; read-out: pTGI
  TGI: > 100 µM

## CC(=O)Nc1cc(CO[Si](C)(C)C(C)(C)C)cc(NC(=O)c2ccc(C(=O)Nc3cccc(NC(=O)CCCN(C)C)c3)cc2)c1
HOP-62 [1]
  growth at 0.01 µM: 97%
NCI-H23 [2]
  growth at 0.01 µM: 101%
NCI-H460
  growth at 0.01 µM: 102%
KM12
  growth at 0.01 µM: 98%
Malme-3M [3]
  growth at 0.01 µM: 99%
UACC-257 [4]
  growth at 0.01 µM: 94%
OVCAR-3
  growth at 0.01 µM: 100%
786-0
  growth at 0.01 µM: 97%
MDA-MB-231 [5]
  growth at 0.01 µM: 102%
SR [6]
  growth at 0.1 µM: 103%
HOP-62 [7]
  growth at 0.1 µM: 98%
U-251 [8]
  growth at 0.1 µM: 100%
MCF7 [9]
  growth at 0.1 µM: 101%
MDA-MB-231 [10]
  growth at 0.1 µM: 95%
MDA-MB-468
  growth at 0.1 µM: 93%
EKVX
  growth at 1 µM: 89%
SF-268
  growth at 1 µM: 101%
SNB-75
  growth at 1 µM: 80%
U-251 [11]
  growth at 1 µM: 91%
SK-MEL-5
  growth at 1 µM: 98%
UACC-62
  growth at 1 µM: 99%
OVCAR-5 [12]
  growth at 1 µM: 89%
OVCAR-8
  growth at 1 µM: 97%
PC-3 [13]
  growth at 1 µM: 105%
MCF7 [14]
  growth at 1 µM: 101%
HL-60(TB)
  growth at 100 µM: 88%
SR [15]
  growth at 100 µM: 116%
NCI-H23 [16]
  growth at 100 µM: 84%
Malme-3M [17]
  growth at 100 µM: 33%
SK-MEL-2
  growth at 100 µM: 87%
SK-MEL-28
  growth at 100 µM: 74%
PC-3 [18]
  growth at 100 µM: 93%
MDA-MB-231 [19]
  growth at 100 µM: 96%
HOP-62 [20]; read-out: GI50
  GI50: > 75 µM
HOP-62 [20]; [23]
  CC50: > 75 µM
HOP-62 [20]; read-out: TGI
  TGI: > 75 µM
HOP-62 [20]; read-out: pGI50 (converted)
  GI50: > 75.9 µM
HOP-62 [20]; [24]
  CC50: > 75.9 µM
HOP-62 [20]; read-out: pTGI
  TGI: > 75.9 µM
SF-539; read-out: GI50
  GI50: > 75 µM
SF-539; [23]
  CC50: > 75 µM
SF-539; read-out: TGI
  TGI: > 75 µM
SF-539; read-out: pGI50 (converted)
  GI50: > 75.9 µM
SF-539; [24]
  CC50: > 75.9 µM
SF-539; read-out: pTGI
  TGI: > 75.9 µM
UACC-257 [21]; read-out: GI50
  GI50: > 75 µM
UACC-257 [21]; read-out: LC50
  LC50: > 75 µM
UACC-257 [21]; read-out: TGI
  TGI: > 75 µM
UACC-257 [21]; read-out: pGI50 (converted)
  GI50: > 75.9 µM
UACC-257 [21]; read-out: pLC50 (converted)
  LC50: > 75.9 µM
UACC-257 [21]; read-out: pTGI
  TGI: > 75.9 µM
OVCAR-5 [22]; read-out: GI50
  GI50: > 75 µM
OVCAR-5 [22]; read-out: LC50
  LC50: > 75 µM
OVCAR-5 [22]; read-out: TGI
  TGI: > 75 µM
OVCAR-5 [22]; read-out: pGI50 (converted)
  GI50: > 75.9 µM
OVCAR-5 [22]; read-out: pLC50 (converted)
  LC50: > 75.9 µM
OVCAR-5 [22]; read-out: pTGI
  TGI: > 75.9 µM
